From ChEMBL document CHEMBL1201862, “PubChem BioAssay data set” (2004) come the findings set out here.

For series [1], the target named is T1, Cytochrome P450 1A2 (Homo sapiens, UniProt P05177).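 Also: PubChem cytochrome P450 panel assay, CYP1A2 panel member.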
T1 sequence (P05177 whole entry): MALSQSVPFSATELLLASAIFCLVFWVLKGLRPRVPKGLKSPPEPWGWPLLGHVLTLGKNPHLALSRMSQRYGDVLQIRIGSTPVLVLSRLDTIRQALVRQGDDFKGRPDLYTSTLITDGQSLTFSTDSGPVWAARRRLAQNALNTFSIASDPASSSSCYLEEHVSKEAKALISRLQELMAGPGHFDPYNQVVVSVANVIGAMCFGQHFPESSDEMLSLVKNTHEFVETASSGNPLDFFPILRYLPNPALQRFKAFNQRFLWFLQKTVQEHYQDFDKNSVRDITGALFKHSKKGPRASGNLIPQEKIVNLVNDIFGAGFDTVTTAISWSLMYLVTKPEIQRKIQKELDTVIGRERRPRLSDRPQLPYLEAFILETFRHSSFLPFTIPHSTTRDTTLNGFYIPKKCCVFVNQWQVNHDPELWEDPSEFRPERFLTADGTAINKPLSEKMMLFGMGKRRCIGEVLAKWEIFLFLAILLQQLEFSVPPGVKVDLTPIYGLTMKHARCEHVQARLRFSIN

The target in series [2] is Cytochrome P450 2C19 (Homo sapiens, UniProt P33261). The series is described as follows: Cytochrome panel assay with activity outcomes. Panel member name: p450-cyp2c19 Compounds with AC50 equal or less than 10 uM are considered active. Type of series: functional.
In series [3] the target is Cytochrome P450 3A4 (Homo sapiens, UniProt P08684).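 Also: CYP3A4 tested as one member of a cytochrome P450 panel screen.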
Series [4] deals with Cytochrome P450 2C9 (Homo sapiens, UniProt P11712).
Series [5] has as its target DNA damage-inducible transcript 3 protein (Mus musculus, UniProt P35639). Type of series: functional, Cricetulus griseus.
A short description of series [6]: Trypanosoma cruzi growth suppression in host cells – NIH3T3 host cells, beta-gal luminescence, confirmation (AID 2044).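 Also: intracellular parasites grown in NIH/3T3 mouse fibroblasts as host cells; luminescent beta-galactosidase reporter signal from transgenic T. cruzi replicating inside host cells; inhibitors lower the luminescence signal.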 The class given is functional, cell-based.
Series [7] is described as follows: NIH3T3 cell viability loss – ATP luminescence, mouse fibroblasts, counter-screen, dose response (AID 2010).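 Also: cells exposed to compound for about 90 hours before reading.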 Type of series: functional, cell-based.
Series [8] can be described thus: microbe, parasite or virus in culture. The class given is functional. Particulars: Mycobacterium tuberculosis.
Series [9] concerns the target T2, Heat shock factor protein 1 (Mus musculus, UniProt P38532).
T2 sequence (P38532 whole entry): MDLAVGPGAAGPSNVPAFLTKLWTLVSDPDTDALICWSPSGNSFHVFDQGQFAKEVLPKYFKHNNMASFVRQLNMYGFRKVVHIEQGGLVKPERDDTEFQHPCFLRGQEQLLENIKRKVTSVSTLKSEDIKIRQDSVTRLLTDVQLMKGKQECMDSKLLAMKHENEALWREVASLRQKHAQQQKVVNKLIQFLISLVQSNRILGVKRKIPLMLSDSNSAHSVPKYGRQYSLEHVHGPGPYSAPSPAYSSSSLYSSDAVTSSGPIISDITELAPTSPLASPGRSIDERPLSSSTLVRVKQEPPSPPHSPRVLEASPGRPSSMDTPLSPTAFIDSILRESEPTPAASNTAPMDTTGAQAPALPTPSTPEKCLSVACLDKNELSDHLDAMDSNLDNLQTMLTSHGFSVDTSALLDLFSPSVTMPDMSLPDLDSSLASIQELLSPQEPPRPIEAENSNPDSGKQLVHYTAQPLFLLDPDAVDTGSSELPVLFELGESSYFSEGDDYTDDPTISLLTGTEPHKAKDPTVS
The series is described as follows: enhancement of HSF1-driven luciferase signal – cell-based, NIH3T3, luminescence, dose retest, confirmation (AID 435004).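 Also: stress induced by proteasome inhibitor MG132 added 30 min after compound; luciferase reporter driven by HSF1 response element in NIH3T3 cells; actives raise luminescence as potentiators of the MG132 stress response.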 The class given is functional.

The target of series [10] is T3, Replicative DNA helicase DnaB (Mycobacterium tuberculosis, UniProt P9WMR3).
T3 sequence (P9WMR3 whole entry): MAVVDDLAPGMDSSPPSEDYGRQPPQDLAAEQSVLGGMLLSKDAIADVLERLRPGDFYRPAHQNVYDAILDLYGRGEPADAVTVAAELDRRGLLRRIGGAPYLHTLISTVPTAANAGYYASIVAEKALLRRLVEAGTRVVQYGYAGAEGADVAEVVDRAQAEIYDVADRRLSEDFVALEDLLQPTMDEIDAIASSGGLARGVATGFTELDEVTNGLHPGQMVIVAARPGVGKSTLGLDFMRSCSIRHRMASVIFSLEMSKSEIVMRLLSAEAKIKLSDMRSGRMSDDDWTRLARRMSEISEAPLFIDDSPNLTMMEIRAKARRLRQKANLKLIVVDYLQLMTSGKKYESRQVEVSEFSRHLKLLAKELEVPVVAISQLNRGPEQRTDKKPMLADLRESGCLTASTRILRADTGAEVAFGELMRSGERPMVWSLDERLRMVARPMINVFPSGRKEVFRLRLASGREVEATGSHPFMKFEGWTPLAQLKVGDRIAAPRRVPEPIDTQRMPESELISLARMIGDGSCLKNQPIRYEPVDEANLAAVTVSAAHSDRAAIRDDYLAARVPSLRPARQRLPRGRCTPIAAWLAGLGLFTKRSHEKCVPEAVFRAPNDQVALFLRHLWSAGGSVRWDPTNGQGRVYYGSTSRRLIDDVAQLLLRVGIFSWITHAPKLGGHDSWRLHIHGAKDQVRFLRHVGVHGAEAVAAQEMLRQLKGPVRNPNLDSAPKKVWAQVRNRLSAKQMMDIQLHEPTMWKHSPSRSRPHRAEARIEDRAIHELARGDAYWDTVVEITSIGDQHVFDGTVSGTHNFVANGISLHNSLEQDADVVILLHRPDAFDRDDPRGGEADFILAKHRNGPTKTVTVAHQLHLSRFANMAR
The series is described as follows: DnaB intein splicing inhibitors, dose response, biochemical, cell-free fluorescence (AID 449749). Type of series: functional.

In series [11] the target is T4, Protein RecA (Mycobacterium tuberculosis, UniProt P9WHJ3).
T4 sequence (P9WHJ3 whole entry): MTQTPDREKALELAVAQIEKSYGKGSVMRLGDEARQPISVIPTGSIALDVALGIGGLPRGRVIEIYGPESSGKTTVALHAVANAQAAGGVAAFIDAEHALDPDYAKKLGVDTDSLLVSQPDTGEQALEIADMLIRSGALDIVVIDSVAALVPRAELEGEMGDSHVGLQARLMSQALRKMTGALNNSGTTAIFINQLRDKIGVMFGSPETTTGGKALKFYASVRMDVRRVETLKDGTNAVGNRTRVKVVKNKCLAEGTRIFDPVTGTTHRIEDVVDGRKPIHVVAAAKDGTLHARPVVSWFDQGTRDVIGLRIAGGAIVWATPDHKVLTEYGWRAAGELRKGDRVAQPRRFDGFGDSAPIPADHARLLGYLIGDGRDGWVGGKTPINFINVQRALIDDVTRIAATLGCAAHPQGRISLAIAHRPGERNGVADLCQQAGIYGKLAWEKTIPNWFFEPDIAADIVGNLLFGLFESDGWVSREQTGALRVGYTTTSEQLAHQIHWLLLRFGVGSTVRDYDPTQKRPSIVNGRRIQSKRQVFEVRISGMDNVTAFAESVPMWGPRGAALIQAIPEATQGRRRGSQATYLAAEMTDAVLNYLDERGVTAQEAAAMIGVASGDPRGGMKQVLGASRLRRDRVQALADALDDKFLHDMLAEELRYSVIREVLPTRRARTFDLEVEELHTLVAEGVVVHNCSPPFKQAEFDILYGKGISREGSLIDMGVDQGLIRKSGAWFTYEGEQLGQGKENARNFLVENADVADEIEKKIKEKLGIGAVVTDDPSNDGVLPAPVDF
The series is described as follows: Fluorescence Cell-Free Homogeneous Dose Retest to Identify Inhibitors of RecA-Intein Splicing Activity. [Related pubchem assays (depositor defined):AID2097, AID2223, AID489010, AID492950]. The class given is functional.

The target of series [12] is T5, Ubiquitin-conjugating enzyme E2 N (Homo sapiens, UniProt P61088).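 Also: Dose-response confirmation in a TR-FRET assay detecting UBC13-driven polyubiquitin chain formation, inhibition measured.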
T5 sequence (P61088 whole entry): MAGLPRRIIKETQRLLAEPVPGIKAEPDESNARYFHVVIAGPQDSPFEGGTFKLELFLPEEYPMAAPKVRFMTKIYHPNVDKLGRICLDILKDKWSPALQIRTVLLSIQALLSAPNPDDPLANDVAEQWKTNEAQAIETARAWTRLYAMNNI
Type of series: functional.

Series [13] concerns the target T6, Bcl-2-related protein A1 (Mus musculus, UniProt Q07440).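 Also: confirmatory dose–response counterscreen on Bfl-1, used to check hits from a UBC13 polyubiquitin inhibitor campaign.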
T6 sequence (Q07440 whole entry): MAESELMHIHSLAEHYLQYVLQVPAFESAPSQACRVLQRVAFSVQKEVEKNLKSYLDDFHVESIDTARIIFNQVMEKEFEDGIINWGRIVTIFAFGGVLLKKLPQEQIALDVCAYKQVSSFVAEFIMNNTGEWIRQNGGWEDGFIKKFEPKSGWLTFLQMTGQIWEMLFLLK
Type of series: functional.

For series [14], the target named is T7, Rac GTPase-activating protein 1 (Homo sapiens, UniProt Q9H0H5).
T7 sequence (Q9H0H5 whole entry): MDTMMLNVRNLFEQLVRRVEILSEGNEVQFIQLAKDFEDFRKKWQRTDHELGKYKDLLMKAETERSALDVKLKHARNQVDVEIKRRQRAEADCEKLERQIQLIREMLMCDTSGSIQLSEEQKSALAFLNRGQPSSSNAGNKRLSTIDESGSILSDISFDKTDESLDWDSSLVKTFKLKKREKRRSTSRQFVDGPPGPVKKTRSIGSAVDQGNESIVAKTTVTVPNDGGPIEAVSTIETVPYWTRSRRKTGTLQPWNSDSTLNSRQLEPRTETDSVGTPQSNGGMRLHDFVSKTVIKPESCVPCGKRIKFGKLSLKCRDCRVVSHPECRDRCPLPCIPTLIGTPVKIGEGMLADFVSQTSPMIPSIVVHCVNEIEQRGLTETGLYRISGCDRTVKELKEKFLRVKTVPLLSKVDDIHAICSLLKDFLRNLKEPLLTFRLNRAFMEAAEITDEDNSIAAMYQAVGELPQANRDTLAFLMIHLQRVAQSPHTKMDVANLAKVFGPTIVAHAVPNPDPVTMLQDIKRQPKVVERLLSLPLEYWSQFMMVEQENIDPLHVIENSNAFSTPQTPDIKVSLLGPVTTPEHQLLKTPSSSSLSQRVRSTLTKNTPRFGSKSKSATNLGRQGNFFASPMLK
Put plainly: blockers of MgcRacGAP-driven Rac1 GTP hydrolysis – biochemical, ADP Hunter fluorescence, primary and confirmatory, confirmation (AID 624330). Type of series: functional.

A short description of series [15]: decrease of insulin promoter-GFP reporter – imaging, high-content screening, mouse beta cells (AID 1628). The note with it: MIN6. Type of series: functional.
The nature of series [16]: MIN6 cell viability loss – mouse insulinoma, cytotoxicity control, dose response (AID 2122).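 Also: confirmatory high-throughput counterscreen run to flag cytotoxic compounds.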 The class given is functional.
Series [17] has as its system INS1. Put plainly: INS-1E survival protection against cytokine death – cell-based, luminescence, retest, dose response (AID 449756).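 Also: cell death triggered by IL-1 beta plus TNF-alpha plus IFN-gamma mixture; protective hits raise ATP signal compared with cytokine alone wells.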 Type of series: functional. Particulars: Rattus norvegicus, INS1.
Series [18] is described as follows: NIH-3T3 fibroblast cytotoxicity, dose response, cytotoxicity control, cell-based, fluorescence, Alamar Blue, secondary assay (AID 2327).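 Also: NIH-3T3 mouse fibroblasts cultured with fluconazole at 8 µg/mL.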 Type of series: functional.
Series [19] is described as follows: fluconazole-exposed Candida albicans growth modulators – fluorescence, retest, confirmation (AID 2467). The class given is functional, cell-based.

“And” between values parts separate entries of the source, which are not always exact repeats. Identical values can stand only once. “Also recorded” adds a separate entry of the source. The source made the active and inactive calls. A value given as a limit tells only on which side of the number the result lay.

Sequence of Cytochrome P450 2C9 (P11712 whole entry): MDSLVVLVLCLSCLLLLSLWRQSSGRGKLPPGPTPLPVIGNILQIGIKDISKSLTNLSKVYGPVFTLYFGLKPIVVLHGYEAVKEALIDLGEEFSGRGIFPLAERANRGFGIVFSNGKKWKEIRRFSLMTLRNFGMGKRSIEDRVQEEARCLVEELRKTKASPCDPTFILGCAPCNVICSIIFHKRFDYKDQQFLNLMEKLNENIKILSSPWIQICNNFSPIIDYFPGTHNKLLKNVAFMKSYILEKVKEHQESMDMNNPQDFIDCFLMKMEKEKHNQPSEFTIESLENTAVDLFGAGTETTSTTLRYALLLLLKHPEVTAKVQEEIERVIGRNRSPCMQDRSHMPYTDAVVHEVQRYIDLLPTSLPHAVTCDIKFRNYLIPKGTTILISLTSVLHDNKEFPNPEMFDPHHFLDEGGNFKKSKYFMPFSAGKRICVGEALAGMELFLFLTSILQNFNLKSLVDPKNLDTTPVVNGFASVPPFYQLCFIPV
Sequence of Cytochrome P450 2C19 (P33261 whole entry): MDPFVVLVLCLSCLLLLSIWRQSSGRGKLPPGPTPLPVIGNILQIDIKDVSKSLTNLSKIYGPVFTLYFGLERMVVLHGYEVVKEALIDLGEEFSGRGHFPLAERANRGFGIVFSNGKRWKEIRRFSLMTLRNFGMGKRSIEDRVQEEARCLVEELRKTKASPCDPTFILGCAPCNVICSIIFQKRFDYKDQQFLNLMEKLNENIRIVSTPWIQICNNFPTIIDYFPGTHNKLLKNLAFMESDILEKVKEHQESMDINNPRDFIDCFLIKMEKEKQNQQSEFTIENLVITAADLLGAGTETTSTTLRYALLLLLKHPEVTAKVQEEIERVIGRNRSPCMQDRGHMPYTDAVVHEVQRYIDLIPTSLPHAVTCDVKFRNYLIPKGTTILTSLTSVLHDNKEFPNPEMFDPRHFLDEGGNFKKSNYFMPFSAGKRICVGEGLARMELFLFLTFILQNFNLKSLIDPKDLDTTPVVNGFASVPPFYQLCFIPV
Sequence of Cytochrome P450 3A4 (P08684 whole entry): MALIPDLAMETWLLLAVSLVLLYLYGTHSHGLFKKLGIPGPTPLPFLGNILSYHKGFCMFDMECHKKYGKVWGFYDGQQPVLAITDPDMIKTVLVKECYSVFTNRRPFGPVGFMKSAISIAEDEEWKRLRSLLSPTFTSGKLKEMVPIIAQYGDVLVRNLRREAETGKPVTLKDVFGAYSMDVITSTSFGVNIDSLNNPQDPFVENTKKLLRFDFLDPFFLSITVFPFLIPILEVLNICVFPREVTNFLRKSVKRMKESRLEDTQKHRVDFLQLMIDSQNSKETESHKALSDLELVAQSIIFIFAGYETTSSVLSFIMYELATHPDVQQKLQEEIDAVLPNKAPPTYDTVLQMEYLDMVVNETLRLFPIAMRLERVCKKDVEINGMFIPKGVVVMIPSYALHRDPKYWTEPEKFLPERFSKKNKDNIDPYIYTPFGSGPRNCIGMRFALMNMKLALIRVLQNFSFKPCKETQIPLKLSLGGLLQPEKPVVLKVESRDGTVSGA
Sequence of DNA damage-inducible transcript 3 protein (P35639 whole entry): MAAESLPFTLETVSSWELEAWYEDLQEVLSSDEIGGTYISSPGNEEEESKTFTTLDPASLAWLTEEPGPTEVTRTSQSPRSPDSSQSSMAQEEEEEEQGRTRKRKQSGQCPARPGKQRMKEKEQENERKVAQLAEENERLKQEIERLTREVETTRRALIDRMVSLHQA

Regarding `Fc1ccc(C(c2ccc(F)cc2)N2CCN(C/C=C\c3ccccc3)CC2)cc1`, the AC50 in series [1] was 15.8 µM (inconclusive) (2×) and 25.1 µM (inconclusive); in series [2] it was “inactive”; in [3] it was “inactive; also recorded: inconclusive”; in [4], 39.8 µM (inconclusive) and 20 µM (inconclusive) and 15.8 µM (inconclusive).
Consider `CCOc1ccc2nc(NC(=O)CSc3nnnn3C3CCCCC3)sc2c1`, for which, in series [5], the “Absolute IC50 (CHOP)” value was 10 µM. Also, the EC50 in series [6] was 2.14 µM (active); in series [7], > 30 µM (not active).
For the molecule `CC(C)c1nnc(NC(=O)CCC(=O)N2CCN(c3ccccn3)CC2)s1`, the half-maximal activity concentration (AC50) in series [2] (read-out: AC50) is 28.2 µM (inconclusive); in series [3], “inconclusive”; in [4], 7.08 µM (inconclusive).
`COCCCN1CCN(c2nnc3n2-c2sc(Br)cc2C(c2ccccc2Cl)=NC3)CC1.CS(=O)(=O)O`: the concentration at half-maximal activity (AC50) in series [2] (read-out: AC50) was 7.08 µM (inconclusive); in series [3], “inconclusive”.
Regarding `Cc1ccccc1C(=O)N1CCN(c2ccc([N+](=O)[O-])c(NCc3ccco3)c2)CC1`, in series [3], the AC50 result was “inconclusive”.
As for `O=C(CCl)N1CCN2C(=O)c3ccccc3C12c1ccc(Cl)cc1` (stereo unspecified), the “Absolute IC50 (CHOP)” value in series [5] was 10 µM. Also, the CC50 in series [8] was 8.94 µM (active). Moreover, the 50% effective concentration (EC50) in [9] is 15 µM (active); in series [11], 1.08 µM (active). For the same molecule, the concentration at half-maximal activity (AC50) in series [10] was 3.96 µM (active).
As for `C#CCOCCOCCOCCNc1nc(N2CCN(C(=O)C([C@@H](C)O)n3cc([C@@H](N)CCCCN)nn3)CC2)nc(N2CCN(C(=O)[C@H](CCCCN)n3cc(CN)nn3)CC2)n1` (stereo partly specified), the figures for the half-inhibitory concentration (IC50) in series [12], in [13] and in [14] were 3.7 µM (active), > 20 µM (inactive) and 171 µM (active), respectively.
For the molecule `c1ccc(CN2CCC3(CCc4ccccc43)CC2)cc1`, the AC50 was 31.6 µM (inconclusive) in series [1], “inconclusive” in [3] and 39.8 µM (inconclusive) in series [4].
In the case of `CC(C)(C)c1ccc(OCc2ccc(C(=O)N/N=C/c3ccc(O)c(O)c3)cc2)cc1`, the half-maximal inhibitory concentration (IC50) is 3.14 µM (active) in [15] and 1.97 µM (active) in series [16]. Also, the AC50 in series [17] is 5.45 µM (active). The EC50 in series [18] is 2.67 µM (inconclusive); in series [19] it was > 38 µM (not active).
Regarding `O=[N+]([O-])c1ccccc1N/N=C/c1cccc(O)c1O`, the figures for the IC50 in series [15] and in [16] were 2.74 µM (active) and 3.75 µM (active), respectively.
